In patent US20040076968A1, “Method for detecting pre-disposition to hepatotoxicity” (priority 2000, published 2004):

Assays:
[1] = system: UGT1A gene 3′UTR (exon 5); test: Association of the UGT1A 3′UTR polymorphism with liver function abnormality in tolcapone-treated patients (case-control genotyping); assay type: in vivo, human; details: UGT1A-3′_908
Description: (§1) Disease severity had already been controlled for by the original study inclusion criteria.
(§2) In the KTC format, the generation of double-stranded amplification product is monitored using a DNA intercalating dye and a thermal cycler which has a fluorescence-detecting CCD camera attached (PE-Bipsystems GeneAmp 5700 Sequence Detection System). Fluorescence in each well of the PCR amplification plate is measured at each cycle of annealing and denaturation. The cycle at which the relative fluorescence reached a threshold of 0.5 using the SDS sofiware from PE-Biosystems was defined as the Ct.
(§3) The amplification reactions were designed to be allele-specific, so that the amplification reaction was positive if the polymorphism was present and the amplification reaction was negative if the polymorphism was absent. For each bi-allelic polymorphism, one well of the amplification plate was set up to be specific for allele 1 and a second well was set up to be specific for allele 2. For each polymorphism to be detected, three primers were designed—two allele-specific primers and one common primer (Table 3). Reactions for allele 1 contained allele 1-specific primer and the common primer and reactions for allele 2 contained allele 2-specific primer and the common primer.
(§4) The Ct of each amplification reaction was determined and the difference between the Ct for allele 1 and allele 2 (delta Ct) was, used as the assay result. Samples with delta Cts between −3.0 and 3.0 were considered heterozygous (A1/A2). Samples with delta Cts below −3.0 were considered homozygous for A1 (A1/A1); samples with delta Cts above 3.0 were considered homozygous for A2 (A2/A2).
(§5) The patient samples were divided into two groups.
(§6) For each genotype, the following analyses were performed:
(§7) a) Analysis of the entire genotype: patients were classified according to the following three categories: homozygous 1/1 (two copies of allele 1 and no copies of allele 2), heterozygous 1/2 (one copy of allele 1 and one copy of allele 2) or homozygous 2/2 (no copies of allele 1 and two copies of allele 2). Analysis was conducted to assess whether there were differences in the proportion of case patients in each of these groups, compared with the proportion of control patients. The Cochran-Maentel-Hanszel (CMH) test was applied to the data presented in a 2-by-3 table (the two columns indicating presence or absence of liver function abnormality and the three rows indicating the three categories of the genotype).
(§8) b) Analysis of alleles: the presence of allele 1 or 2 in case patients was compared to the presence of the respective allele in the control patients.
c) Analysis of allele counts: this analysis was conducted to compare the distribution of the alleles in patients with liver function abnormality to that of patients without abnormality. The total number of copies of allele 1 among patients with liver function abnormality was compared with the total number of copies of allele 2 among these case patients. The CMH test was applied to the data using a 2-by-2 table (the two columns indicating presence or absence of liver function abnormality and the two rows indicating the two allele counts).
All markers showing significant association to elevated liver transaminases corresponded to SNPs in the UGT1 genes.

UGT1A6 gene = test: Association of UGT1A6 polymorphisms with liver function abnormality in tolcapone-treated patients (case-control genotyping); assay type: in vivo, human
Description: as §1, §2, §3, §4
For all other single nucleotide polymorphisms (SNPs) discovery and genotyping was done by double-stranded DNA sequencing using an ABI capillary sequencer and Big Dye chemistry (ABI). The primers used to amplify all exons are shown below and were also used as sequencing primers. Publicly available genomic sequences were used as references for primer design. All polymorphisms were targeted with these pairs-of-primer sets:
as §5, §6, §7, §8
c) Analysis of allele counts: this analysis was conducted to compare the distribution of the alleles in patients with liver function abnormality to that of patients without abnormality. The total number of copies of allele 1 among patients with liver function abnormality was compared with the total number of copies of allele 2 among these case patients.

Compound: Cc1ccc(C(=O)c2cc(O)c(O)c([N+](=O)[O-])c2)cc1 [tolcapone]
- n (%) of patients ([1]; Allele C Absent, Liver Function Abnormality Absent): 14 (5.1%)
- n (%) of patients ([1]; Allele C Absent, Liver Function Abnormality Present): 4 (3.0%)
- n (%) of patients ([1]; Allele C Present, Liver Function Abnormality Absent): 260 (94.9%)
- n (%) of patients ([1]; Allele C Present, Liver Function Abnormality Present): 131 (97.0%)
- n (%) of patients ([1]; Allele G Absent, Liver Function Abnormality Absent): 163 (59.5%)
- n (%) of patients ([1]; Allele G Absent, Liver Function Abnormality Present): 101 (74.8%)
- n (%) of patients ([1]; Allele G Present, Liver Function Abnormality Absent): 111 (40.5%)
- n (%) of patients ([1]; Allele G Present, Liver Function Abnormality Present): 34 (25.2%)
- n (%) of allele copies ([1]; Count Allele C, Liver Function Abnormality Absent): 423 (77.2%)
- n (%) of allele copies ([1]; Count Allele C, Liver Function Abnormality Present): 232 (85.9%)
- n (%) of allele copies ([1]; Count Allele G, Liver Function Abnormality Absent): 125 (22.8%)
- n (%) of allele copies ([1]; Count Allele G, Liver Function Abnormality Present): 38 (14.1%)
- n (%) of patients ([1]; Genotype Heterozygous G/C, Liver Function Abnormality Absent): 97 (35.4%)
- n (%) of patients ([1]; Genotype Heterozygous G/C, Liver Function Abnormality Present): 30 (22.2%)
- n (%) of patients ([1]; Genotype Homozygous C/C, Liver Function Abnormality Absent): 163 (59.5%)
- n (%) of patients ([1]; Genotype Homozygous C/C, Liver Function Abnormality Present): 101 (74.8%)
- n (%) of patients ([1]; Genotype Homozygous G/G, Liver Function Abnormality Absent): 14 (5.1%)
- n (%) of patients ([1]; Genotype Homozygous G/G, Liver Function Abnormality Present): 4 (3.0%)
- n (%) of patients (UGT1A6 gene; UGT1A6_232 Ser7Ala, Allele G Absent, Liver Function Abnormality Absent): 112 (42.1%)
- n (%) of patients (UGT1A6 gene; UGT1A6_232 Ser7Ala, Allele G Absent, Liver Function Abnormality Present): 40 (30.5%)
- n (%) of patients (UGT1A6 gene; UGT1A6_232 Ser7Ala, Allele G Present, Liver Function Abnormality Absent): 154 (57.9%)
- n (%) of patients (UGT1A6 gene; UGT1A6_232 Ser7Ala, Allele G Present, Liver Function Abnormality Present): 91 (69.5%)
- n (%) of patients (UGT1A6 gene; UGT1A6_232 Ser7Ala, Allele T Absent, Liver Function Abnormality Absent): 31 (11.7%)
- n (%) of patients (UGT1A6 gene; UGT1A6_232 Ser7Ala, Allele T Absent, Liver Function Abnormality Present): 28 (21.4%)
- n (%) of patients (UGT1A6 gene; UGT1A6_232 Ser7Ala, Allele T Present, Liver Function Abnormality Absent): 235 (88.3%)
- n (%) of patients (UGT1A6 gene; UGT1A6_232 Ser7Ala, Allele T Present, Liver Function Abnormality Present): 103 (78.6%)
- n (%) of allele copies (UGT1A6 gene; UGT1A6_232 Ser7Ala, Count Allele G, Liver Function Abnormality Absent): 185 (34.8%)
- n (%) of allele copies (UGT1A6 gene; UGT1A6_232 Ser7Ala, Count Allele G, Liver Function Abnormality Present): 119 (45.4%)
- n (%) of allele copies (UGT1A6 gene; UGT1A6_232 Ser7Ala, Count Allele T, Liver Function Abnormality Absent): 347 (65.2%)
- n (%) of allele copies (UGT1A6 gene; UGT1A6_232 Ser7Ala, Count Allele T, Liver Function Abnormality Present): 143 (54.6%)
- n (%) of patients (UGT1A6 gene; UGT1A6_232 Ser7Ala, Genotype Heterozygous T/G, Liver Function Abnormality Absent): 123 (46.2%)
- n (%) of patients (UGT1A6 gene; UGT1A6_232 Ser7Ala, Genotype Heterozygous T/G, Liver Function Abnormality Present): 63 (48.1%)
- n (%) of patients (UGT1A6 gene; UGT1A6_232 Ser7Ala, Genotype Homozygous G/G, Liver Function Abnormality Absent): 31 (11.7%)
- n (%) of patients (UGT1A6 gene; UGT1A6_232 Ser7Ala, Genotype Homozygous G/G, Liver Function Abnormality Present): 28 (21.4%)
- n (%) of patients (UGT1A6 gene; UGT1A6_232 Ser7Ala, Genotype Homozygous T/T, Liver Function Abnormality Absent): 112 (42.1%)
- n (%) of patients (UGT1A6 gene; UGT1A6_232 Ser7Ala, Genotype Homozygous T/T, Liver Function Abnormality Present): 40 (30.5%)
- n (%) of patients (UGT1A6 gene; UGT1A6_528 A/G, Allele A Absent, Liver Function Abnormality Absent): 22 (8.3%)
- n (%) of patients (UGT1A6 gene; UGT1A6_528 A/G, Allele A Absent, Liver Function Abnormality Present): 26 (20.0%)
- n (%) of patients (UGT1A6 gene; UGT1A6_528 A/G, Allele A Present, Liver Function Abnormality Absent): 243 (91.7%)
- n (%) of patients (UGT1A6 gene; UGT1A6_528 A/G, Allele A Present, Liver Function Abnormality Present): 104 (80.0%)
- n (%) of patients (UGT1A6 gene; UGT1A6_528 A/G, Allele G Absent, Liver Function Abnormality Absent): 129 (48.7%)
- n (%) of patients (UGT1A6 gene; UGT1A6_528 A/G, Allele G Absent, Liver Function Abnormality Present): 44 (33.8%)
- n (%) of patients (UGT1A6 gene; UGT1A6_528 A/G, Allele G Present, Liver Function Abnormality Absent): 136 (51.3%)
- n (%) of patients (UGT1A6 gene; UGT1A6_528 A/G, Allele G Present, Liver Function Abnormality Present): 86 (66.2%)
- n (%) of allele copies (UGT1A6 gene; UGT1A6_528 A/G, Count Allele A, Liver Function Abnormality Absent): 372 (70.2%)
